Data as given in patent US20180296523A1, “USE OF POLYMETHOXYLATED FLAVONES TO AMELIORATE CIRCADIAN RHYTHM DISORDERS” (THE BOARD OF REGENTS OF THE UNIVERSITY OF TEXAS SY, priority 2017, published 2018).
One block for each compound: values may come before it.

Tests used:
[1] = test system: PER2::LucSV reporter fibroblast cells; test: Dose response validation of reporter rhythm in PER2::LucSV cells; format: cell-based, mouse
Experimental: (§1) The chemical screen for circadian clock modulators was conducted at the Chemical Genomics Core facility at the UTHSC-H. The in-house chemical library screened consists of compounds from NIH Clinical Collection, NCI collection and Microsource Spectrum Collection. The screening was conducted largely based on the protocol previously described (Chen et al., 2012). […] Cells were then incubated with 5 μM forskolin for 1-2 h followed by the addition of chemical compounds to the plates with robotic arms (Beckman), and then subjected to continuous monitoring over several days in a temperature-controlled EnVision microplate reader (Perkin Elmer). Data analysis was carried out by using the MultiCycle software (Actimetrics) for measurement of period, phase, and amplitude. […] Tissue explant experiments were conducted as described previously (Chen et al., 2012).

GAL4 DBD-RORα LBD = target: T1, GAL4 DBD-RORα LBD (Mus musculus, UniProt P51448); test: Mammalian one-hybrid reporter assay in HEK293T cells, GAL4-RORα; format: cell-based; details: ligand interaction reduces transcriptional activity
T1 construct: mouse RORα-LBD (aa 261-523); expressed in transfected cells; host or cells: HEK293T
T1 sequence (P51448 261-523): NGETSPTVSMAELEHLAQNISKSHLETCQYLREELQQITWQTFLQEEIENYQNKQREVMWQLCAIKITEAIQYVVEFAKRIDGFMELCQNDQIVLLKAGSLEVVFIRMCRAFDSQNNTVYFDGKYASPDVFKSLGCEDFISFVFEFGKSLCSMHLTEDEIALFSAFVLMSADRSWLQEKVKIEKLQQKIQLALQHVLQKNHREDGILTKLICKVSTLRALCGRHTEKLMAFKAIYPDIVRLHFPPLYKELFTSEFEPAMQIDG
Source text: (§2) Plasmids containing the retinoic acid-related orphan receptor response element (RORE) from mouse Bmal1 promoter, pcDNA3.1B-G4DBD-RORαLBD and pcDNA3.1BG4DBD-RORγLBD were constructed in our lab. Specifically, the 1960 bp sequences (−1830/+130) of the mouse Bmal1 promoter harboring either WT ([…] (SEQ ID NO:1) and […] (SEQ ID NO:2)) or mutant ([…] (SEQ ID NO:3)) RORE were PCR amplified from mouse genomic DNA and cloned into pGL3-promoter luciferase vector. For expression of RORα or RORγ-GAL4 protein, mouse RORα-LBD (aa 261-523) or RORγ-LBD (aa 250-516) were PCR amplified from mouse genomic DNA and cloned into a GAL4-DBD-containing vector, pcDNA3.1B.
(§3) For mammalian one-hybrid assays, HEK293T cells were cotransfected with pcDNA3.1B-G4DBD-RORα/γLBD, pGL4.31 and TK promoter Renilla luciferase construct (tK.pRL). To investigate the regulation of the Bmal1 reporter, Hepa1-6 cells were cotransfected with Bmal1-WT or mutant RORE reporter plasmids, RORα, RORγ or Rev-erbα expression construct along with tK.pRL. Mouse and human siRNA targeting RORα and RORγ were purchased from Santa Cruz. Transfection was performed by Lipfectamine 2000 reagent (Invitrogen) Twenty-four hours after transfection, the cells were treated with vehicle or NOB. Lysates were collected 24 h after treatment, and firefly and Renilla luciferase activities were measured by using a Dual-Luciferase Reporter System (Promega).
(§4) For radio-ligand receptor binding assays, previously described protocols with minor modifications (Kumar et al., 2010; Wang et al., 2010b) were adopted.

GAL4 DBD-RORγ LBD = target: T2, GAL4 DBD-RORγ LBD (Mus musculus, UniProt P51450); test: Mammalian one-hybrid reporter assay in HEK293T cells, GAL4-RORγ; format: cell-based; details: ligand interaction reduces transcriptional activity
T2 construct: RORγ-LBD (aa 250-516); expressed in transfected cells; host or cells: HEK293T
T2 sequence (P51450 250-516): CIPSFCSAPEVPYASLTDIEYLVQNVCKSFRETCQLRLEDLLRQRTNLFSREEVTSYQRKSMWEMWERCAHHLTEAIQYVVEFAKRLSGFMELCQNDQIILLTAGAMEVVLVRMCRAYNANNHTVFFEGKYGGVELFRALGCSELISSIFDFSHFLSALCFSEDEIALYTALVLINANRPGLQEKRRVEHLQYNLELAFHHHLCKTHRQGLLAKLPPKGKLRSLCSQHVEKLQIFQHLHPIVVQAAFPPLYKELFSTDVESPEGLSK
Source text: as §2, §3, §4

[2] = test system: Clock^Δ19/+ PER2::Luc reporter cells; test: High-throughput chemical screen, PER2::Luc reporter rhythm; format: cell-based, mouse; details: for PER2::Luc reporter rhythm / circadian amplitude: Clock^Δ19/+ cells, forskolin pre-stimulated
Experimental: as §1, with “Specifically, the chemical screen for circadian clock modulators was conducted at the Chemical Genomics Core facility at the University of Texas Health Science Center at Houston (UTHSC-H). The in-house chemical library screened consisted of compounds from the National Institutes of Health (NIH) Clinical Collection, National Cancer Institute collection, and Microsource Spectrum Collection. Screening was conducted largely on the basis of the protocol previously described (Chen et al., 2012). […] Upon confluency, cells were incubated with 5 μM forskolin for 1-2 hr, followed by the addition of chemical compounds to the plates with robotic arms (Beckman), and then subjected to continuous monitoring over several days in a temperature-controlled EnVision microplate reader (Perkin Elmer). Data analysis was carried out by using the MultiCycle software (Actimetrics) for measurement of period, phase, and amplitude. The chemical” for “The chemical”

activity on GAL4-RORα chimeric receptor (GAL4 DBD-RORα LBD): no activities
activity on GAL4-RORγ chimeric receptor (GAL4 DBD-RORγ LBD): no activities
SMILES: C[C@@H]1O[C@@H](O[C@H]2[C@H](Oc3cc(O)c4c(c3)O[C@H](c3ccc(O)cc3)CC4=O)O[C@H](CO)[C@@H](O)[C@@H]2O)[C@H](O)[C@H](O)[C@H]1O [naringin, reference compound]
reporter luminescence ([1]; PER2::LucSV reporter cells): did not enhance the reporter luminescence
PER2::Luc reporter rhythm / circadian amplitude [2]: failed to enhance cellular circadian rhythms
reporter luminescence ([2]; PER2::LUC Clock^Δ19/+ reporter cells): did not enhance the reporter luminescence

SMILES: COc1ccc(-c2cc(=O)c3c(OC)c(OC)c(OC)c(OC)c3o2)cc1OC [nobiletin]
amplitude of PER2::LucSV reporter rhythm [1]: robustly enhanced the amplitude
period of PER2::LucSV reporter rhythm [1]: lengthened the period in a dose-dependent manner
EC50 ([1]; Mus musculus, Fibroblast, PER2::LucSV reporter rhythm, read-out: estimated half maximal effective concentration): < 5 µM
activity on GAL4-RORα chimeric receptor (GAL4 DBD-RORα LBD): robust activities
activity on GAL4-RORγ chimeric receptor (GAL4 DBD-RORγ LBD): robust activities
PER2::Luc reporter rhythm / circadian amplitude [2]: enhance the reporter rhythm
PER2::Luc reporter rhythm / circadian amplitude ([2]; listed as Nobiletin): significantly enhance circadian amplitude
